# “And” between values parts separate entries of the source, which are not always exact repeats. Equal values may be shown once.
# Experiments:
# [1] = target: E. coli DNA gyrase (Escherichia coli, UniProt P0AES4+P0AES6); experiment: biochemical; details: gel based supercoiling assay; read-out: E. coli DNA Gyrase IC50
# [2] = target: E. coli topoisomerase IV (Escherichia coli, UniProt P0AFI2+P20083); experiment: biochemical; details: gel based decatenation assay; read-out: E. coli Topo IV IC50
# [3] = system: A. baumannii ATCC 19606; experiment: MIC studies in LB Media; type: cell-based; details: Acinetobacter baumannii, ATCC19606, read-out: Minimum Inhibitory Concentration in LB Media, A. ba
# Description: (§1) Bacterial cultures that were stored as glycerol stocks at −80° C. were sub cultured on LB agar plates to obtain isolated colonies. A single colony of each strain was cultured in LB broth. The cultures were incubated at 37° C., 200 rpm till they reach an optical density (OD at 600 nm) of 0.8 to 1. […] Test compounds were dissolved in dimethyl sulfoxide (DMSO) to a stock concentration of 4 mg/ml. A two-fold dilution series of this DMSO stock was prepared in a 96 well V bottom microtitre plate from rows A to H. A 3 μL volume of these dilutions were transferred to a 96-well flat bottom microtitre assay plate. Controls to monitor the effects of DMSO and media sterility were included. Each well was inoculated with 150 μL of the above diluted culture. The plates were incubated at 37° C. overnight in a humidified incubator. The following morning, the plates were read using a Spectrophotometer at 600 nm wavelength.
# [4] = system: Morganella morganii ATCC 25830; experiment: MIC studies in LB Media; type: cell-based; details: ATCC25830, read-out: Minimum Inhibitory Concentration in LB Media, M. mo
# Description: as §1
# [5] = system: Enterobacter cloacae ATCC 13047; experiment: MIC studies in LB Media; type: cell-based; details: ATCC13047, read-out: Minimum Inhibitory Concentration in LB Media, E. cl
# Description: as §1
# [6] = system: Citrobacter freundii ATCC 43864; experiment: MIC studies in LB Media; type: cell-based; details: ATCC43864, read-out: Minimum Inhibitory Concentration in LB Media, C. fr
# Description: as §1
# [7] = system: K. pneumoniae ATCC 13883; experiment: MIC studies in LB Media; type: cell-based; details: Klebsiella pneumoniae, ATCC13883, read-out: Minimum Inhibitory Concentration in LB Media, K. pn
# Description: as §1
# [8] = system: P. aurigenosa ATCC 27853; experiment: MIC studies in LB Media; type: cell-based; details: Pseudomonas aeruginosa, ATCC27853, read-out: Minimum Inhibitory Concentration in LB Media, P. ae
# Description: as §1
# [9] = system: S. aureus ATCC 29213; experiment: MIC studies in LB Media; type: cell-based; details: Staphylococcus aureus, ATCC29213, MIC = 90% inhibition of growth, read-out: Minimum Inhibitory Concentration in LB Media, S. au
# Description: as §1
# [10] = system: E. faecalis ATCC 29212; experiment: MIC studies in LB Media; type: cell-based; details: Enterococcus faecalis, ATCC29212, read-out: Minimum Inhibitory Concentration in LB Media, E. fa
# Description: as §1
# [11] = system: Proteus mirabilis ATCC 43071; experiment: MIC studies in LB Media; type: cell-based; details: ATCC43071, read-out: Minimum Inhibitory Concentration in LB Media, P. mi
# Description: as §1
# [12] = system: E. coli ATCC 25922; experiment: MIC studies in LB Media; type: cell-based; details: Escherichia coli, ATCC25922, read-out: Minimum Inhibitory Concentration in LB Media, E. co
# Description: as §1
# [13] = target: T1, hERG potassium channel (Homo sapiens, UniProt Q12809); experiment: hERG inhibition assay, QPatch HTX automated electrophysiology; type: cell-based; details: CHO cell line expressing hERG; whole-cell patch clamp, room temperature
# T1 construct: Chinese Hamster Ovary cell line stably expressing the full-length hERG potassium channel; expressed in transfected cells
# Description: The compounds were tested for inhibition of the human ether a go-go related gene (hERG) K+ channel using QPatch HTX automated electrophysiology.
# Compounds of Formula I were solubilised to 100 mM in DMSO before dilution in HBPS to 300 μM.
# Electrophysiological recordings were made from a Chinese Hamster Ovary cell line stably expressing the full-length hERG potassium channel. Single cell ionic currents were measured in whole-cell patch clamp configuration at room temperature (21-23° C.) using the QPatch HTX platform (Sophion). Intracellular solution contained (mM): 120 KF, 20 KCl, 10 EGTA, 10 HEPES and was buffered to pH 7.3. […] Cells were clamped at a holding potential of −80 mV. Cells were stepped to +20 mV for 2 s then −40 mV for 3 s before returning to the holding potential. This sweep was repeated 10 times at 10 s intervals. hERG currents were measured from the tail step and referenced to the holding current. Compounds were then incubated for 2 minutes prior to a second measurement of ion channel current using an identical pulse train.
# [14] = system: E. coli [ATCC25922]; experiment: Neutropenic Thigh Infection Model in Rat, E. coli; type: in vivo; details: 10 mg/kg, i.v. bolus
# [15] = system: K. pneumoniae [ATCC13883]; experiment: Neutropenic Thigh Infection Model in Rat, K. pneumoniae; type: in vivo; details: 10 mg/kg, i.v. bolus
# [16] = individual animals, 10 hr post infection
# T1 sequence (Q12809 whole entry): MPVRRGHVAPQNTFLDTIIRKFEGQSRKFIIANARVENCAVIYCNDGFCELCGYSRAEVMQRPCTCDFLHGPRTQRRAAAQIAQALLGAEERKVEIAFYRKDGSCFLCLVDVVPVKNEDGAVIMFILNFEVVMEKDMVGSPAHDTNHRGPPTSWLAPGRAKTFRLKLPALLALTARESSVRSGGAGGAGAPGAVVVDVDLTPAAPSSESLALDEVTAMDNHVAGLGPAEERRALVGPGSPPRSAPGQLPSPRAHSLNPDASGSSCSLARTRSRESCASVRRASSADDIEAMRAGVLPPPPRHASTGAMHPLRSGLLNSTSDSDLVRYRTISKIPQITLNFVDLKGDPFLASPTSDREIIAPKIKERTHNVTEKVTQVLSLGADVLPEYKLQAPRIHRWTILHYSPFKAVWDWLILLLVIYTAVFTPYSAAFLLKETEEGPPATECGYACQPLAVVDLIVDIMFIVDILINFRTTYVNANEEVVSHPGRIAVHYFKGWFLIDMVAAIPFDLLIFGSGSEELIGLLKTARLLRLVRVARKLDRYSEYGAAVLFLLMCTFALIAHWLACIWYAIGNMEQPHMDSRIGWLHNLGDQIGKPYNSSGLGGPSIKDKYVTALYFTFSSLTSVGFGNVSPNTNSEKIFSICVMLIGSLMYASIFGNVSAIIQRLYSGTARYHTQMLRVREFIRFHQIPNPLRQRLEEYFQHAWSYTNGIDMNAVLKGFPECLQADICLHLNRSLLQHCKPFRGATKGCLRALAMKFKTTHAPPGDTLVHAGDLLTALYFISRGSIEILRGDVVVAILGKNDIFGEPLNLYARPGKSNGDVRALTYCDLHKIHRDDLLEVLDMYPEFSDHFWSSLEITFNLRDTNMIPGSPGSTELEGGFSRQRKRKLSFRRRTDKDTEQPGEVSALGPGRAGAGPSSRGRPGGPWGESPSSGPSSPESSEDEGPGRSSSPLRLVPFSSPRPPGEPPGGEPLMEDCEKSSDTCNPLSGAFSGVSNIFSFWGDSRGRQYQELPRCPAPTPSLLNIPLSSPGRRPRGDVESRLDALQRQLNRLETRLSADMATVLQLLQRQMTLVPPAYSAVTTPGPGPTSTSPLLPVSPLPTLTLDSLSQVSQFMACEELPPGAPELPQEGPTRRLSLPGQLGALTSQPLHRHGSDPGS
# Sequence of E. coli DNA gyrase (P0AES4 whole entry, one chain of several): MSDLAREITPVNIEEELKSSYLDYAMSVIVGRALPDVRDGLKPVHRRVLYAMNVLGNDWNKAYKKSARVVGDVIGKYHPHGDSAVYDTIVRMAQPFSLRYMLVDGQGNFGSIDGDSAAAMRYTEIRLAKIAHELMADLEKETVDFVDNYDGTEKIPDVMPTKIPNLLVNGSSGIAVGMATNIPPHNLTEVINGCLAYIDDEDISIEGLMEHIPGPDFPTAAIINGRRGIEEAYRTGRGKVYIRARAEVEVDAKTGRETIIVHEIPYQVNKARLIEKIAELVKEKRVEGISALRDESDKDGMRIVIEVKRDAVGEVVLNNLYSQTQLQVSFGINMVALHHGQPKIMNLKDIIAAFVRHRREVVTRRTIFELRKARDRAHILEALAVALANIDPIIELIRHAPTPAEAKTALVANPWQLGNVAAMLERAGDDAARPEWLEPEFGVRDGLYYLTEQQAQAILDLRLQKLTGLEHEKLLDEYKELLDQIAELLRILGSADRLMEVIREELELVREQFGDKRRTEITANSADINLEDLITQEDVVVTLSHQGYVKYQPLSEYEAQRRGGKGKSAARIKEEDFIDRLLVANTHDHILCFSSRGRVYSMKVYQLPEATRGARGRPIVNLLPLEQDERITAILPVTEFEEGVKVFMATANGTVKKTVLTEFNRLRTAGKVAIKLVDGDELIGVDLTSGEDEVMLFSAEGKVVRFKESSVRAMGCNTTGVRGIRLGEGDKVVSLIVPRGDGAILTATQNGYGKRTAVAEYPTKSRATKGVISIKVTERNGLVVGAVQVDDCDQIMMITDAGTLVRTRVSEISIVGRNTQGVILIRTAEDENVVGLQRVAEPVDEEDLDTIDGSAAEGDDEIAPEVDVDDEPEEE
# Sequence of E. coli topoisomerase IV (P20083 whole entry): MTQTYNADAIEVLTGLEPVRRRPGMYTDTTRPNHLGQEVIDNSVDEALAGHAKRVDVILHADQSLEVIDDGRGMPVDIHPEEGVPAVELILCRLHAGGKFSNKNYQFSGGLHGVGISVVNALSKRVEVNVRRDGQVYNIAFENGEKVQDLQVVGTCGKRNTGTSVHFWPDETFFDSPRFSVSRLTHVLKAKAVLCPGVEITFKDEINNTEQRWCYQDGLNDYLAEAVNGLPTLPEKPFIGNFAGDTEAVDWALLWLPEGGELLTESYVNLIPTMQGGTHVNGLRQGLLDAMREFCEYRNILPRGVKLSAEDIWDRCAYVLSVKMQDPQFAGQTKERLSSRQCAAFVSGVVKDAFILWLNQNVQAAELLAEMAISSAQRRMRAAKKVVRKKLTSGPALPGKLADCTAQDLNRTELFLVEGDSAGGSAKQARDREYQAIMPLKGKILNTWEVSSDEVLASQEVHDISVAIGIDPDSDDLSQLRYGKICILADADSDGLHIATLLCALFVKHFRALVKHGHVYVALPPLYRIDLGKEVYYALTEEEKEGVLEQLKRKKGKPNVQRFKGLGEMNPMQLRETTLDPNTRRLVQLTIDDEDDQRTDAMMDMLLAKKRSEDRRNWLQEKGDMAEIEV
# Sequence of E. coli topoisomerase IV (P0AFI2 whole entry): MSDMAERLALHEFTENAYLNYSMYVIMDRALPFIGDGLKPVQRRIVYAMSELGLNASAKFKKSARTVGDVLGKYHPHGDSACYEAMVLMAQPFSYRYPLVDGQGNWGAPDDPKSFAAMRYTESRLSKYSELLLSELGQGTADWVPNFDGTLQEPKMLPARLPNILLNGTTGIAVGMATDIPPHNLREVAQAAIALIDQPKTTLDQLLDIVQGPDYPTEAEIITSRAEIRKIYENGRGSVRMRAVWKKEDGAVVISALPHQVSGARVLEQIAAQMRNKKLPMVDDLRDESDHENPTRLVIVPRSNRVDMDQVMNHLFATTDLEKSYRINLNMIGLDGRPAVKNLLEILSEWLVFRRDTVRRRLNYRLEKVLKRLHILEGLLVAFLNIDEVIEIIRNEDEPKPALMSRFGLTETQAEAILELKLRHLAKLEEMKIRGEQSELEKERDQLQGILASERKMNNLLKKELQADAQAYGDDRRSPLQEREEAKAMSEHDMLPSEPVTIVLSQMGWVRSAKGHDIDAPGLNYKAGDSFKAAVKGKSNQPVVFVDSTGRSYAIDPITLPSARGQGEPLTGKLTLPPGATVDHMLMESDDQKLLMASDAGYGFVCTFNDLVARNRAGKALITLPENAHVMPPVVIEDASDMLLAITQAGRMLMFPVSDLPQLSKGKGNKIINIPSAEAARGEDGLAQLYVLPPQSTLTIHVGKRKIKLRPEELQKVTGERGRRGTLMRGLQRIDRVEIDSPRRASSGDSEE
SMILES,IC50 [1] [nM],IC50 [2] [nM],MIC [3] [µg/mL],MIC [4] [µg/mL],MIC [5] [µg/mL],MIC [6] [µg/mL],MIC [7] [µg/mL],MIC [8] [µg/mL],MIC [9] [µg/mL],MIC [10] [µg/mL],MIC [11] [µg/mL],MIC [12] [µg/mL],IC50 [13] [nM],Mean Log 10 CFU/thigh reduction (wrt 2 h PI control: 5.04 Log10CFU/g thigh) [14] [Log 10 CFU/thigh],MEAN ± SD (Log10 CFU/g thigh) ([14]; 10 hr post infection),"Log10 CFU/g thigh [14, 16]",MEAN ± SD (Log10 CFU/g thigh) [15] [Log10 CFU/g thigh],Mean Log 10 CFU/thigh reduction (wrt 2 h PI control: 5.04 Log10CFU/g thigh) [15] [Log 10 CFU/thigh],"Log10 CFU/g thigh [15, 16]"
"CC(COc1c(F)ccc2ccc(=O)n(C)c12)NC[C@H]1CN(c2cnc3c(n2)NC(=O)CO3)C(=O)O1 (stereo partly drawn) [Compound 4, 6-((5S)-5-(((1-((7-fluoro-1-methyl-2-oxo-1,2-dihydroquinolin-8-yl)oxy)propan-2-yl)amino)methyl)-2-oxooxazolidin-3-yl)-2H-pyrazino[2,3-b][1,4]oxazin-3(4H)-one]",30,< 350,0.25,1,0.5,0.5,0.25,2,0.06,0.125,2,0.25,36000,–,–,–,–,–,–
"Cc1nc2ccc(F)c(OCCNC[C@H]3CN(c4cnc5c(n4)NC(=O)CO5)C(=O)O3)c2n(C)c1=O [Compound 9, (S)-6-(5-(((2-((6-fluoro-2,4-dimethyl-3-oxo-3,4-dihydroquinoxalin-5-yl)oxy)ethyl)amino)methyl)-2-oxooxazolidin-3-yl)-2H-pyrazino[2,3-b][1,4]oxazin-3(4H)-one]",40,–,0.125,0.5,1,0.25,0.5,4,≤ 0.06,0.25,2,0.125,–,–,–,–,–,–,–
"Cn1c(=O)cnc2ccc(F)c(OCCNC[C@@H]3CN(c4cnc5c(n4)NC(=O)CO5)C(=O)O3)c21 [Compound 8, (R)-6-(5-(((2-((6-fluoro-4-methyl-3-oxo-3,4-dihydroquinoxalin-5-yl)oxy)ethyl)amino)methyl)-2-oxooxazolidin-3-yl)-2H-pyrazino[2,3-b][1,4]oxazin-3(4H)-one]",–,–,0.06,0.03,0.125,0.06,0.06,0.5,≤ 0.015,0.06,0.25,0.03,58000,–,–,–,–,–,–
"Cn1c(=O)cnc2ccc(F)c(OCCNC[C@H]3CN(c4cnc5c(n4)NC(=O)CS5)C(=O)O3)c21 [Compound 10, (S)-5-(((2-((6-fluoro-4-methyl-3-oxo-3,4-dihydroquinoxalin-5-yl)oxy)ethyl)amino)methyl)-3-(3-oxo-3,4-dihydro-2H-pyrazino[2,3-b][1,4]thiazin-6-yl)oxazolidin-2-one]",22,< 370,0.013,0.025,0.05,0.025,0.025,0.25,≤ 0.003,0.025,0.125,0.025,19000,–,–,–,–,–,–
"Cc1cc(=O)n(C)c2c(OCCNC[C@H]3CN(c4cnc5c(n4)NC(=O)CO5)C(=O)O3)c(F)ccc12 [Compound 5, (S)-6-(5-(((2-((7-fluoro-1,4-dimethyl-2-oxo-1,2-dihydroquinolin-8-yl)oxy)ethyl)amino)methyl)-2-oxooxazolidin-3-yl)-2H-pyrazino[2,3-b][1,4]oxazin-3(4H)-one]",33,< 187,0.25,–,–,–,0.25,1,0.125,0.125,–,0.06,71000,–,–,–,–,–,–
"Cn1c(=O)ccc2nccc(OCCNC[C@H]3CN(c4ccc5c(n4)NC(=O)CO5)C(=O)O3)c21 [Compound 1, (S)-6-(5-(((2-((5-methyl-6-oxo-5,6-dihydro-1,5-naphthyridin-4-yl)oxy)ethyl)amino)methyl)-2-oxooxazolidin-3-yl)-2H-pyrido[3,2-b][1,4]oxazin-3(4H)-one]",< 250,< 250,2,2,8,1,1,4,0.25,1,16,0.5,> 100000,–,–,–,–,–,–
"Cn1c(=O)ccc2ncc(Cl)c(OCCNC[C@H]3CN(c4cnc5c(n4)NC(=O)CO5)C(=O)O3)c21 [Compound 6, (S)-6-(5-(((2-((3-chloro-5-methyl-6-oxo-5,6-dihydro-1,5-naphthyridin-4-yl)oxy)ethyl)amino)methyl)-2-oxooxazolidin-3-yl)-2H-pyrazino[2,3-b][1,4]oxazin-3(4H)-one]",6330,17700,> 4,> 4,> 4,> 4,> 4,> 4,> 4,> 4,> 4,> 4,–,–,–,–,–,–,–
"Cn1c(=O)cnc2ccc(F)c(OCCNC[C@H]3CN(c4cnc5c(n4)NC(=O)CO5)C(=O)O3)c21 [Compound 7, (S)-6-(5-(((2-((6-fluoro-4-methyl-3-oxo-3,4-dihydroquinoxalin-5-yl)oxy)ethyl)amino)methyl)-2-oxooxazolidin-3-yl)-2H-pyrazino[2,3-b][1,4]oxazin-3(4H)-one]",15,< 220,0.06,0.06,0.125,0.06,0.06,0.25,≤ 0.015,0.06,0.25,0.03,> 300000,–,–,–,–,–,–
"O=C(O)c1cn(C2CC2)c2cc(N3CCNCC3)c(F)cc2c1=O [Ciprofloxacin, ciprofloxacin, reference compound]",–,–,–,–,–,–,–,–,–,–,–,–,–,2.12,3.73 ± 0.21,3.74 Log10 CFU/g thigh and 3.94 Log10 CFU/g thigh and 3.52 Log10 CFU/g thigh,3.30 ± 0.11,1.74,3.22 Log10 CFU/g thigh and 3.25 Log10 CFU/g thigh and 3.42 Log10 CFU/g thigh
"Cn1c(=O)ccc2ccc(F)c(OCCNC[C@@H]3CN(c4cnc5c(n4)NC(=O)CO5)C(=O)O3)c21 [Compound 3, (R)-6-(5-(((2-((7-fluoro-1-methyl-2-oxo-1,2-dihydroquinolin-8-yl)oxy)ethyl)amino)methyl)-2-oxooxazolidin-3-yl)-2H-pyrazino[2,3-b][1,4]oxazin-3(4H)-one]",11,–,0.06,0.03,0.125,0.06,0.06,0.5,0.015,0.06,0.125,0.06,25000,–,–,–,–,–,–

# Reference: US11401277B2, “Anti-bacterial heterocyclic compounds and their synthesis” (Bugworks Research, Inc., priority 2017, dated 2022)
